In patent US20090324760A1, “Hair tonic” (priority 2005, published 2009):

System: C3H mice
Experiment: Hair-growth test on shaved back of C3H mice
Format: in vivo
Conditions: 0.2 mL per mouse twice a day for two weeks, measured on sixteenth day
Experimental: The hair-growth promoting effect of the hair tonic of the invention was evaluated according to the following hair-growth test. Commercially available acteoside (manufactured by ChromaDex Corp.) or the crude acteoside according to example 1 was dissolved in a 55% wt aqueous ethanol solution. Comparative example 1 was carried out using this aqueous ethanol solution as the reference.
C3H mice (males of 8-week age, average weight 35 g, a group of 10 mice) were used as test animals. Their back (2 cm×4 cm) was shaved to prepare a test area and from the following day onwards, each test sample (0.2 mL per mouse) was applied twice a day(morning and evening) for two weeks. On the sixteenth day, a picture of the test area was taken with a video camera, and hair-growth was measured with an image analyzer. The hair-growth promoting effect was evaluated as hair-growth rate (%) calculated according to the equation reported below.
[Hair-growth rate (%)]=[area of the hair-growth portion]/[test area]×100

Question: With Acteoside [Example 2] as the substance, how does the Hair growth rate (sample concentration 0.1 % by weight in 55% wt aqueous ethanol) read?
Answer: 61.05%

Question: And the Hair growth rate (sample concentration 0.2 % by weight in 55% wt aqueous ethanol)?
Answer: 65.02%
